Source: PMC3608883 (Clinical Drug Investigation, 2013)
“And” between values parts separate entries of the source, which are not always exact repeats. Identical values can stand only once.

Key:
CYP2D6 [1] = settings: cited from earlier work
CYP2D6 [2] = assay: In vivo CYP2D6 interaction, VXR as CYP2D6 substrate coadministered with LDX; settings: inferred from VEN increase and ODV decrease with LDX + VXR coadministration
Bioequivalence test = settings: for AUC / Cmax: human, in vivo; for AUCτ test/reference ratio [90 % CI] / Cmax test/reference ratio [90 % CI]: LDX + VXR Day 30 vs VXR alone Day 15, Treatment Arm B
[3] = Plasma pharmacokinetics of LDX, d-amphetamine, VEN and ODV; settings: mean (SD), day 15
[4] = Treatment-emergent adverse events; type: in vivo, human
[5] = tested on: cytochrome P450 (CYP) isoenzyme; settings: any CYP isoenzyme tested to date; cited from earlier work
Vital signs = type: in vivo, human; settings: single treatment (LDX alone Arm A; VXR alone Arm B)
[6] = treatment arms combined, LDX alone n = 40 and VXR alone n = 37 during dose titration periods, LDX + VXR n = 67

C[C@H](N)Cc1ccccc1 [d-Amphetamine, dextroamphetamine]
Inhibition of CYP2D6 activity (CYP2D6 [1]): weakly inhibits
Inhibition of CYP2D6 activity, from current pharmacokinetic findings (CYP2D6 [2]): weak inhibitor
AUC (Bioequivalence test; 70 mg/day): 1110 ng·h/mL
Cmax (Bioequivalence test; 70 mg/day): 85.9 ng/mL

CN(C)CC(c1ccc(O)cc1)C1(O)CCCCC1 (centres unmarked) [ODV, O-desmethylvenlafaxine]
AUCτ test/reference ratio [90 % CI] (Bioequivalence test): 0.83 [0.71, 0.96] and 0.826 [0.713, 0.956]
Cmax test/reference ratio [90 % CI] (Bioequivalence test): 0.907 [0.777, 1.058]
AUC (Bioequivalence test; 225 mg/day): 8080 ng·h/mL
Cmax (Bioequivalence test; 225 mg/day): 392 ng/mL

COc1ccc(C(CN(C)C)C2(O)CCCCC2)cc1 (centres unmarked) [VEN, Venlafaxine]
tmax ([3]; after VXR alone 225 mg/day): 6.4 (0.8) h
AUCτ test/reference ratio [90 % CI] (Bioequivalence test): 1.13 [0.88, 1.45] and 1.129 [0.88, 1.45]
Cmax test/reference ratio [90 % CI] (Bioequivalence test): 1.10 [0.88, 1.38] and 1.103 [0.881, 1.38]
Geometric least squares mean Cmax (Bioequivalence test; VXR alone, Day 15, Treatment Arm B): 180.7 ng/mL
AUC (Bioequivalence test; 225 mg/day): 2410 ng·h/mL

CS(=O)(=O)O.CS(=O)(=O)O.C[C@@H](Cc1ccccc1)NC(=O)[C@@H](N)CCCCN [LDX, Lisdexamfetamine dimesylate]
AUCτ ([3]; after LDX alone 70 mg/day): 65.5 (44.0) ng·h/mL
Cmax ([3]; after LDX alone 70 mg/day): 49.1 (32.25) ng/mL
tmax ([3]; after LDX alone 70 mg/day): 1.1 (0.3) h
t½ ([3]; after LDX alone 70 mg/day): 0.4 (0.1) h
Time to resolution of serious AE (presyncope) ([4]; one participant, LDX 30 mg/day): ≤ 10 min
Any TEAE [4, 6]: 33 (82.5) n (%)
TEAE Anorexia [4, 6]: 12 (30.0) n (%)
TEAE Anxiety [4, 6]: 5 (12.5) n (%)
TEAE Back pain [4, 6]: 2 (5.0) n (%)
TEAE Chest pain [4, 6]: 3 (7.5) n (%)
TEAE Constipation [4, 6]: 3 (7.5) n (%)
TEAE Diarrhoea [4, 6]: 2 (5.0) n (%)
TEAE Dizziness [4, 6]: 3 (7.5) n (%)
TEAE Dry mouth [4, 6]: 10 (25.0) n (%)
TEAE Dyspnoea [4, 6]: 2 (5.0) n (%)
TEAE Epistaxis [4, 6]: 0 (0.0) n (%)
TEAE Euphoric mood [4, 6]: 3 (7.5) n (%)
TEAE Headache [4, 6]: 7 (17.5) n (%)
TEAE Insomnia [4, 6]: 7 (17.5) n (%)
TEAE Libido decreased [4, 6]: 0 (0.0) n (%)
TEAE Nausea [4, 6]: 6 (15.0) n (%)
TEAE Palpitations [4, 6]: 8 (20.0) n (%)
TEAE Somnolence [4, 6]: 7 (17.5) n (%)
TEAE Stomach discomfort [4, 6]: 2 (5.0) n (%)
TEAE Testicular pain [4, 6]: 0 (0.0) n (%)
TEAE Urinary hesitation [4, 6]: 0 (0.0) n (%)
TEAE Vision blurred [4, 6]: 2 (5.0) n (%)
Inhibition of CYP isoenzymes [5]: does not inhibit
Maximum mean increase in DBP (Vital signs): ~6 mmHg
Maximum mean increase in SBP (Vital signs): ~7 mmHg
Maximum mean increase in pulse rate (Vital signs): approximately 13 beats/min
